The nature of this assay: Fluorescence Based Assay: The details of the KEAP1 KELCH ThermoFluor® Assay Construct are as follows: Kelch domain of human KEAP 1 (321-624 aa) was used in the assay. The protein was expressed in E. coli with 6His tag that was cleaved prior to receipt for use.ThermoFluor® experiments were carried out using instruments owned by Janssen Research and Discovery, L.L.C. through its acquisition of 3-Dimensional Pharmaceuticals, Inc. 1,8-ANS (Invitrogen) was used as a fluorescent dye. Protein (KEAP Kelch) and compound solutions were dispensed into black 384-well polypropylene PCR microplates (Abgene) and overlayed with silicone oil (1 μL, Fluka, type DC 200) to prevent evaporation.Reference wells contained KEAP Kelch without compounds, and the assay conditions were as follows: 1.1 μM (0.037mg/mL) KEAP Kelch, 80 μM 1,8-ANS, 25 mM PIPES, pH 7.0, 100 mM NaCl, 0.002% Tween-20.

Each structure is given as a SMILES string.

Our source for the Kd values is ChEMBL document CHEMBL5729293, “Inhibitors of KEAP1-Nrf2 protein-protein interaction” (2022).

What is called Kd is the equilibrium constant for the complex coming apart. Higher therefore signals lower affinity. In turn, `Cc1ccc([C@H](CC(=O)O)c2ccn3c(C(F)(F)F)nnc3c2C)nc1CN1CC2(CC2)Oc2ncccc2S1(=O)=O` registered a Kd below 1 nM.

Compound `Cc1ccc([C@@H](c2ccn3c(C(F)(F)F)nnc3c2C)C(C)(C)C(=O)O)nc1CN1CC2(CC2)Oc2nc(OCCN3CCCC3)c(C)cc2S1(=O)=O` yielded a Kd below 1 nM.

In turn, `Cc1ccc([C@H](CC(=O)O)c2ccn3c(C4CC4)nnc3c2C)cc1CN1CC2(CC2)Oc2ncc(F)cc2S1(=O)=O` gave a Kd below 1 nM.

`Cc1cnc2c(c1)S(=O)(=O)N(Cc1cc([C@@H](c3ccn4c(C5CC5)nnc4c3C)C(C)(C)C(=O)O)ccc1C)CC1(CC1)O2` displayed a dissociation constant Kd below 1 nM.

The compound `Cc1cnc([C@@H](c2ccn3c(C(F)(F)F)nnc3c2C)C(C)(C)C(=O)O)cc1CN1CC2(CC2)Oc2nc(OCCN3CCCC3)c(C)cc2S1(=O)=O` gave a Kd below 1 nM.

In the case of `Cc1ccc([C@@H](CC(=O)O)c2cc(OC(F)F)c3c(c2)nnn3C)cc1CN1C[C@H]2CCCN2c2ncccc2S1(=O)=O`, the Kd was below 1 nM.

With `Cc1ccc([C@@H](CC(=O)O)c2ccn3c(C(F)(F)F)nnc3c2C)cc1CN1C[C@H]2CCCN2c2ccccc2S1(=O)=O`, the Kd was below 1 nM.

`Cc1ncc([C@H](c2ccn3c(C(F)(F)F)nnc3c2C)C(C)(C)C(=O)O)cc1CN1C[C@@H]2CCCCN2c2ncc(C#N)cc2S1(=O)=O` returned a dissociation constant (Kd) below 1 nM.

In the case of `Cc1ccc([C@H](CC(=O)O)c2ccn3c(C4CC4)nnc3c2C)cc1CN1C[C@H]2CCCN2c2ncccc2S1(=O)=O`, the Kd is below 1 nM.

Compound `Cc1ccc([C@@H](CC(=O)O)c2ccn3c(C(F)(F)F)nnc3c2C)cc1CN1C[C@H]2CCCCN2c2ncccc2S1(=O)=O` gave a Kd below 1 nM.

In turn, `Cc1ccc([C@@H](CC(=O)O)c2ccn3c(C(F)(F)F)nnc3c2C)cc1CN1C[C@@H]2CCC(F)(F)CN2c2ncccc2S1(=O)=O` returned a Kd below 1 nM.

The compound `Cc1cnc2c(c1)S(=O)(=O)N(Cc1cc([C@@H](c3ccn4c(C(F)F)nnc4c3C)C(C)(C)C(=O)O)ccc1C)CC1(CC1)O2` returned a Kd below 1 nM.

`Cc1ccc(C(CC(=O)O)c2ccn3c(C(F)(F)F)nnc3c2C)cc1CN1C[C@@H]2CCCCN2c2ncccc2S1(=O)=O` (stereo not given in full): the Kd was below 1 nM.

The compound `CCc1nnc2c(C)c([C@H](CC(=O)O)c3ccc(C)c(CN4C[C@H]5CCCN5c5ccccc5S4(=O)=O)c3)ccn12` displayed a dissociation constant Kd below 1 nM.

Regarding `Cc1ccc([C@H](c2ccn3c(C(F)(F)F)nnc3c2C)C(C)(C)C(=O)O)cc1CN1C[C@]2(CCOC2)Oc2ncccc2S1(=O)=O`, the Kd is below 1 nM.

In turn, `Cc1ccc(C(CC(=O)O)c2ccn3c(C(F)F)nnc3c2C)cc1CN1C[C@H]2CCCN2c2ncc(C#N)cc2S1(=O)=O` (stereo not given in full) gave a Kd below 1 nM.

The compound `Cc1ccc([C@H](c2ccn3c(C(F)(F)F)nnc3c2)C(C)(C)C(=O)O)cc1CN1CC2(CCOCC2)Oc2ncccc2S1(=O)=O` displayed a dissociation constant (Kd) below 1 nM.

In the case of `CC[C@@H]1CN(Cc2cc(C(CC(=O)O)c3ccn4c(C(F)(F)F)nnc4c3C)ccc2C)S(=O)(=O)c2cccnc2O1` (stereo not given in full), the Kd is below 1 nM.

As to `Cc1ccc([C@@H](CC(=O)O)c2ccn3c(C(F)F)nnc3c2C)cc1CN1C[C@H]2CCCN2c2ncc(C#N)cc2S1(=O)=O`, the dissociation constant Kd is below 1 nM.

Regarding `Cc1ccc([C@@H](c2ccn3c(C(F)(F)F)nnc3c2C)C(C)(C)C(=O)O)cc1CN1CC2(CC2)Oc2nc(OCCN3CCCC3)c(C)cc2S1(=O)=O`, the Kd was below 1 nM.

Regarding `Cc1ccc([C@@H](CC(=O)O)c2ccn3c(C(F)(F)F)nnc3c2C)nc1CN1C[C@@H]2CCCCN2c2ncc(C#N)cc2S1(=O)=O`, the Kd was below 1 nM.

Turning to `Cc1cnc2c(c1)S(=O)(=O)N(Cc1nc([C@H](CC(=O)O)c3ccn4c(C(F)(F)F)nnc4c3C)ccc1C)C[C@H]1CCCCN21`, the Kd is below 1 nM.

In turn, `CC[C@@H]1CN(Cc2nc([C@H](CC(=O)O)c3ccc4c(nnn4C4CC4)c3C)ccc2C)S(=O)(=O)c2cccnc2O1` displayed a Kd below 1 nM.

`Cc1ccc([C@@H](CC(=O)O)c2ccn3c(C(F)(F)F)nnc3c2C)cc1CN1C[C@H]2CCCN2c2ncccc2S1(=O)=O`: the Kd was below 1 nM.

The compound `Cc1ccc([C@H](c2ccn3c(C(F)(F)F)nnc3c2C)C(C)(C)C(=O)O)cc1CN1CC2(CCOCC2)Oc2nc(N[C@H](C)CN3CCCCC3)c(C)cc2S1(=O)=O` displayed a Kd below 1 nM.

For `Cc1cnc2c(c1)S(=O)(=O)N(Cc1cc(C(c3ccc4c(nnn4C4CC4)c3C)C(C)(C)C(=O)O)cnc1C)CC1(CC1)O2` (stereo not given), the Kd was below 1 nM.

Consider `Cc1ccc(C(CC(=O)O)c2ccn3c(C(F)F)nnc3c2C)cc1CN1CC2(CCOCC2)Oc2ccc(F)cc2S1(=O)=O` (stereo not given), for which the dissociation constant Kd is below 1 nM.

`Cc1ccc([C@H](CC(=O)O)c2cc(OC3CC3)c3c(c2)nnn3C)cc1CN1C[C@H]2CCCCN2c2ncccc2S1(=O)=O` showed an equilibrium dissociation constant (Kd) below 1 nM.

For `Cc1ccc(C(CC(=O)O)c2ccn3c(C(F)(F)F)nnc3c2C)nc1CN1CC2(CC2)Oc2ncc(F)cc2S1(=O)=O` (stereo not given), the dissociation constant (Kd) is below 1 nM.

On to `Cc1ccc(C(CC(=O)O)c2ccc3c(nnn3C3CC3)c2C)cc1CN1C[C@@H]2CCCCN2c2ncccc2S1(=O)=O` (stereo not given in full), for which the Kd is below 1 nM.

`Cc1c([C@H](CC(=O)O)c2ccc(Cl)c(CN3CC4CCCCN4c4ncc(F)cc4S3(=O)=O)c2)ccn2c(C(F)(F)F)nnc12` (stereo not given in full) gave a Kd below 1 nM.

`Cc1cnc([C@@H](c2ccn3c(C(F)(F)F)nnc3c2C)C(C)(C)C(=O)O)cc1CN1CC2(CC2)Oc2nc(OCCN3CCCCC3)c(C)cc2S1(=O)=O`: the Kd was below 1 nM.

For the compound `Cc1cnc([C@@H](c2ccn3c(C(F)(F)F)nnc3c2C)C(C)(C)C(=O)O)cc1CN1CC2(CCOCC2)Oc2nc(OCCN3CCCC3)c(C)cc2S1(=O)=O`, the Kd is below 1 nM.

On to `Cc1ccc([C@H](c2ccn3c(C(F)(F)F)nnc3c2C)C(C)(C)C(=O)O)cc1CN1CC2(CCOCC2)Oc2nc(N[C@@H](C)CCO)c(C)cc2S1(=O)=O`, for which the Kd is below 1 nM.

Turning to `Cc1ccc([C@@H](CC(=O)O)c2ccc3c(nnn3C3CC3)c2C)cc1CN1C[C@H]2CCCCN2c2ncccc2S1(=O)=O`, the equilibrium dissociation constant (Kd) was below 1 nM.

For the compound `Cc1cnc([C@@H](c2ccn3c(C(F)F)nnc3c2C)C(C)(C)C(=O)O)cc1CN1CC2(CCOCC2)Oc2nc(OCCN3CCCCC3)c(C)cc2S1(=O)=O`, the equilibrium dissociation constant (Kd) was below 1 nM.

`CC[C@@H]1CN(Cc2cc(C(CC(=O)O)c3ccn4c(C)nnc4c3)ccc2C)S(=O)(=O)c2cccnc2O1` (stereo not given in full) yielded a dissociation constant (Kd) below 1 nM.

For the compound `Cc1ccc([C@@H](c2ccn3c(C(F)(F)F)nnc3c2C)C(C)(C)C(=O)O)cc1CN1CC2(CCOCC2)Oc2nc(O[C@@H](C)CN3CCCCC3)c(C)cc2S1(=O)=O`, the Kd was below 1 nM.

`Cc1ccc(C(CC(=O)O)c2ccc3c(nnn3C3CC3)c2C)cc1CN1C[C@H]2CCCN2c2ncccc2S1(=O)=O` (stereo not given in full) had a dissociation constant Kd below 1 nM.

On to `Cc1ccc([C@@H](c2ccn3c(C(F)F)nnc3c2C)C(C)(C)C(=O)O)nc1CN1CC2(COC2)Oc2ncccc2S1(=O)=O`, for which the Kd is below 1 nM.

On to `Cc1ccc([C@H](CC(=O)O)c2ccn3c(C(F)(F)F)nnc3c2C)nc1CN1C[C@@H]2CCCCN2c2ncc(C#N)cc2S1(=O)=O`, for which the dissociation constant Kd was below 1 nM.

The compound `Cc1ccc([C@H](CC(=O)O)c2ccn3c(C(F)(F)F)nnc3c2C)cc1CN1C[C@@H]2CCCCN2c2ncccc2S1(=O)=O` had a Kd below 1 nM.

As for `CCn1nnc2c(C)c(C(CC(=O)O)c3ccc(C)c(CN4C[C@H]5CCCN5c5ncccc5S4(=O)=O)n3)ccc21` (stereo not given in full), the Kd was below 1 nM.

In the case of `Cc1ccc([C@H](CC(=O)O)c2ccn3c(C(F)(F)F)nnc3c2C)cc1CN1CC2(CCOCC2)Oc2ncccc2S1(=O)=O`, the equilibrium dissociation constant (Kd) is below 1 nM.

As for `Cc1ccc([C@H](c2ccn3c(C(F)(F)F)nnc3c2C)C(C)(C)C(=O)O)cc1CN1CC2(CCOCC2)Oc2nc(N[C@@H](C)CN3CCCC3)c(C)cc2S1(=O)=O`, the Kd is below 1 nM.

`Cc1ccc(C(c2ccn3c(C(F)(F)F)nnc3c2C)C(C)(C)C(=O)O)cc1CN1CC2(CCOCC2)Oc2nc(OCCN3CCOCC3)ccc2S1(=O)=O` (stereo not given) returned a Kd below 1 nM.

As to `Cc1cnc2c(c1)S(=O)(=O)N(Cc1cc(C(c3ccn4c(C(F)(F)F)nnc4c3C)C(C)(C)C(=O)O)cnc1C)CC1(CCOCC1)O2` (stereo not given), the Kd was below 1 nM.

In the case of `Cc1ccc([C@H](CC(=O)O)c2ccn3c(C(F)(F)F)nnc3c2C)cc1CN1C[C@H]2CCCCN2c2ncc(C#N)cc2S1(=O)=O`, the Kd is below 1 nM.

`Cc1ccc(C(CC(=O)O)c2ccn3c(C(F)(F)F)nnc3c2)cc1CN1C[C@@H]2CCCN2c2ncccc2S1(=O)=O` (stereo not given in full) showed a Kd below 1 nM.

The compound `Cc1ccc(C(CC(=O)O)c2ccn3c(C(F)(F)F)nnc3c2C)nc1CN1CC2CCCCN2c2ncc(Cl)cc2S1(=O)=O` (stereo not given) registered an equilibrium dissociation constant (Kd) below 1 nM.

Compound `Cc1ccc([C@@H](CC(=O)O)c2ccn3c(C(F)(F)F)nnc3c2C)nc1CN1C[C@@H]2CCCCN2c2ncccc2S1(=O)=O` came in with a Kd below 1 nM.

`Cc1c([C@@H](CC(=O)O)c2ccc(Cl)c(CN3CC4CCCCN4c4ncccc4S3(=O)=O)c2)ccn2c(C(F)(F)F)nnc12` (stereo not given in full): the dissociation constant Kd is below 1 nM.

`Cc1ccc([C@@H](c2ccn3c(C(F)F)nnc3c2C)C(C)(C)C(=O)O)cc1CN1CC2(CCOCC2)Oc2nc(OCCN3CCOCC3)ccc2S1(=O)=O` gave a dissociation constant (Kd) below 1 nM.

In the case of `Cc1ccc([C@@H](CC(=O)O)c2ccc3c(nnn3CC3CC3)c2C)cc1CN1C[C@H]2CCCN2c2ncccc2S1(=O)=O`, the equilibrium dissociation constant (Kd) was below 1 nM.

Compound `CC[C@@H]1CN(Cc2cc([C@H](CC(=O)O)c3ccn4c(C(F)(F)F)nnc4c3C)ccc2C)S(=O)(=O)c2cccnc2O1` came in with a Kd below 1 nM.

Consider `Cc1ncc([C@@H](c2ccn3c(C(F)(F)F)nnc3c2C)C(C)(C)C(=O)O)cc1CN1C[C@@H]2CCCCN2c2ncc(C#N)cc2S1(=O)=O`, for which the Kd is below 1 nM.

Take `Cc1ccc([C@@H](c2ccn3c(C(F)(F)F)nnc3c2C)C(C)(C)C(=O)O)cc1CN1CC2(CCOCC2)Oc2nc(CCC(=O)NCCOCCN)ccc2S1(=O)=O`: the Kd was above 10000 nM.

`Cc1ccc([C@@H](c2ccn3c(C(F)F)nnc3c2C)C(C)(C)C(=O)O)cc1CN1CC2(CC2)Oc2nc(OCCN3CCCC3)c(C)cc2S1(=O)=O` yielded an equilibrium dissociation constant (Kd) below 1 nM.

Take `Cc1cnc2c(c1)S(=O)(=O)N(Cc1cc([C@H](c3ccn4c(C(F)(F)F)nnc4c3C)C(C)(C)C(=O)O)cnc1C)CC1(CCOCC1)O2`: the Kd is below 1 nM.

For `Cc1ccc([C@H](CC(=O)O)c2ccn3c(C(F)(F)F)nnc3c2C)cc1CN1CC2(CC2)Oc2ncc(F)cc2S1(=O)=O`, the equilibrium dissociation constant (Kd) is below 1 nM.
